Values joined by “and” are separate entries in the source; they are usually repeats but may differ in a detail not shown here. Equal values may be shown once. Read-outs that look alike come from different tables or passages of the source.
Tests used:
SARS-CoV-2 3CLpro [1] = molecular target: T1, SARS-CoV-2 3CLpro (Severe acute respiratory syndrome coronavirus 2, UniProt P0DTD1); experiment: biochemical; format: biochemical
SARS-CoV-2 3CLpro [2] = molecular target: T1, SARS-CoV-2 3CLpro; settings: read-out: KI
SARS-CoV-2 3CLpro [3] = molecular target: T1, SARS-CoV-2 3CLpro
[4] = molecular target: SARS-CoV-2 3CLpro / HEK293T lysate (Severe acute respiratory syndrome coronavirus 2, UniProt P0DTD1); format: binding
[5] = read-out: Inhibition (%) @10 μM
[6] = 6.25 µM, read-out: inhibition ratio (%)
[7] = 25 µM, read-out: inhibition ratio (%)
[8] = 50 µM, read-out: inhibition ratio (%)

O=c1cc(-c2ccc(O)cc2)oc2cc(O)cc(O)c12 [Apigenin]
inhibition at 10 µM (SARS-CoV-2 3CLpro [1]; [5]): -1%

COc1ccc(-c2cc(=O)c3c(O)cc(O)cc3o2)cc1O [Diosmetin]
inhibition at 10 µM (SARS-CoV-2 3CLpro [1]; [5]): 11.3%

O=C1C[C@@H](c2ccc(O)c(O)c2)Oc2cc(O)cc(O)c21 [Eriodictyol]
inhibition at 10 µM (SARS-CoV-2 3CLpro [1]; [5]): 34.5%

COc1ccc(-c2coc3cc(O)ccc3c2=O)cc1 [Formononetin]
inhibition at 10 µM (SARS-CoV-2 3CLpro [1]; [5]): 16%

O=c1c(-c2ccc(O)cc2)coc2cc(O)cc(O)c12 [Genistein]
inhibition at 10 µM (SARS-CoV-2 3CLpro [1]; [5]): 15%

O=c1c(-c2ccc(O)cc2)coc2cc(O[C@@H]3O[C@H](CO)[C@@H](O)[C@H](O)[C@H]3O)cc(O)c12 [Genistin]
inhibition at 10 µM (SARS-CoV-2 3CLpro [1]; [5]): 25.5%

COc1ccc([C@@H]2CC(=O)c3c(O)cc(O)cc3O2)cc1O [Hesperetin]
inhibition at 10 µM (SARS-CoV-2 3CLpro [1]; [5]): 13.8%

COc1cc(-c2oc3cc(O)cc(O)c3c(=O)c2O)ccc1O [Isorhamnetin]
inhibition at 10 µM (SARS-CoV-2 3CLpro [1]; [5]): -2.6%

COc1ccc(-c2oc3cc(O)cc(O)c3c(=O)c2O)cc1 [Kaempferide]
inhibition at 10 µM (SARS-CoV-2 3CLpro [1]; [5]): 8.1%

O=c1cc(-c2ccc(O)c(O)c2)oc2cc(O)cc(O)c12 [Luteolin]
Inhibition (%) @10 μM (SARS-CoV-2 3CLpro [1]; 10 µM): -4.1%

O=c1c(O)c(-c2ccc(O)c(O)c2)oc2cc(O)cc(O)c12 [Quercetin]
inhibition at 10 µM (SARS-CoV-2 3CLpro [1]; [5]): 41.3%

O=c1c(-c2ccc(O[C@@H]3O[C@H](CO)[C@@H](O)[C@H](O)[C@H]3O)cc2)coc2cc(O)cc(O)c12 [Sophoricoside]
inhibition at 10 µM (SARS-CoV-2 3CLpro [1]; [5]): 10%

O=C1c2c(O)cc(O)cc2OC(c2ccc(O)c(O)c2)C1O (stereo not shown) [Taxifolin]
inhibition at 10 µM (SARS-CoV-2 3CLpro [1]; [5]): 28%

COc1cc(O)c2c(=O)c(O)c(-c3cc(O)c(O)c(O)c3)oc2c1 [compound 3, 7-O-methyl myricetin]
IC50 (SARS-CoV-2 3CLpro [1]; IC50 (µM)): 0.31 µM
inhibition at 0.15625 µM (SARS-CoV-2 3CLpro [1]; read-out: inhibition ratio (%)): 28.3%
inhibition at 0.3125 µM (SARS-CoV-2 3CLpro [1]; read-out: inhibition ratio (%)): 43.1%
inhibition at 5 µM (SARS-CoV-2 3CLpro [1]; read-out: inhibition ratio (%)): 96.8%
inhibition at 10 µM (SARS-CoV-2 3CLpro [1]; read-out: inhibition ratio (%)): 98.5%
inhibition at […] (SARS-CoV-2 3CLpro [1]; read-out: inhibition ratio (%)): 89.4% and 96.2%

O=c1c(O)c(-c2cc(O)c(O)c(O)c2)oc2cc(OCC3CCCC3)cc(O)c12 [compound 6, 7-O-cyclopentylmethyl-myricetin]
IC50 (SARS-CoV-2 3CLpro [1]; read-out: IC50): 2.23 µM and 2.28 µM and 2.8 µM and 2.48 µM

COc1cc(O)c2c(c1)O[C@H](c1cc(O)c(O)c(O)c1)[C@@H](O)C2=O [compound 7, 7-O-methyl dihydromyricetin]
IC50 (SARS-CoV-2 3CLpro [1]; IC50 (µM)): 270 nM (2×) and 240 nM
inhibition at 0.0488281 µM (SARS-CoV-2 3CLpro [1]; read-out: inhibition ratio (%)): 8.15%
inhibition at 0.0976562 µM (SARS-CoV-2 3CLpro [1]; read-out: inhibition ratio (%)): 25.7%
inhibition at 0.390625 µM (SARS-CoV-2 3CLpro [1]; read-out: inhibition ratio (%)): 54.6%
inhibition at 0.78125 µM (SARS-CoV-2 3CLpro [1]; read-out: inhibition ratio (%)): 84.2%
inhibition at 1.5625 µM (SARS-CoV-2 3CLpro [1]; read-out: inhibition ratio (%)): 97.1%
inhibition at 3.125 µM (SARS-CoV-2 3CLpro [1]; read-out: inhibition ratio (%)): 94.4%
inhibition at 6.25 µM (SARS-CoV-2 3CLpro [1]; read-out: inhibition ratio (%)): 98.2%
inhibition at 25 µM (SARS-CoV-2 3CLpro [1]; read-out: inhibition ratio (%)): 94.6%
inhibition at 50 µM (SARS-CoV-2 3CLpro [1]; read-out: inhibition ratio (%)): 95.6%
inhibition at […] (SARS-CoV-2 3CLpro [1]; read-out: inhibition ratio (%)): 36.2% and 99.3%

O=c1c(O)c(-c2cc(O)c(O)c(O)c2)oc2cc(OP(=O)(Oc3ccccc3)Oc3ccccc3)cc(O)c12 [compound 9]
inhibition at 0.78125 µM (SARS-CoV-2 3CLpro [1]; 0.78125 µM, read-out: inhibition ratio (%)): 10.1%
inhibition at 3.125 µM (SARS-CoV-2 3CLpro [1]; 3.125 µM, read-out: inhibition ratio (%)): 57.7%
inhibition at 6.25 µM (SARS-CoV-2 3CLpro [1]; [6]): 78.1%
inhibition at 25 µM (SARS-CoV-2 3CLpro [1]; [7]): 96%
inhibition at 50 µM (SARS-CoV-2 3CLpro [1]; [8]): 99.4%

O=C1c2c(O)cc(OP(=O)(Oc3ccccc3)Oc3ccccc3)cc2O[C@H](c2cc(O)c(O)c(O)c2)[C@H]1O [compound 10]
inhibition at 6.25 µM (SARS-CoV-2 3CLpro [1]; [6]): 81.5%
inhibition at 25 µM (SARS-CoV-2 3CLpro [1]; [7]): 98.9%
inhibition at 50 µM (SARS-CoV-2 3CLpro [1]; [8]): 98.6%
inhibition at 100 µM (SARS-CoV-2 3CLpro [1]; 100 µM, read-out: inhibition ratio (%)): 99.4%
inhibition at 200 µM (SARS-CoV-2 3CLpro [1]; 200 µM, read-out: inhibition ratio (%)): 99.6%

O=C1c2c(O)cc(O)cc2O[C@H](c2cc(O)c(O)c(O)c2)[C@H]1O [dihydromyricetin]
Inhibition (%) @10 μM (SARS-CoV-2 3CLpro [1]; 10 µM): > 90%
inhibition at 10 µM (SARS-CoV-2 3CLpro [1]; [5]): 93.8%
inhibition at 0.3125 µM (SARS-CoV-2 3CLpro [1]; read-out: inhibition ratio (%)): 13%
inhibition at 0.390625 µM (SARS-CoV-2 3CLpro [1]; read-out: inhibition ratio (%)): 15%
inhibition at 0.625 µM (SARS-CoV-2 3CLpro [1]; read-out: inhibition ratio (%)): 24.1%
inhibition at 0.78125 µM (SARS-CoV-2 3CLpro [1]; read-out: inhibition ratio (%)): 39.3%
inhibition at 1.5625 µM (SARS-CoV-2 3CLpro [1]; read-out: inhibition ratio (%)): 58.9%
inhibition at 3.125 µM (SARS-CoV-2 3CLpro [1]; read-out: inhibition ratio (%)): 82.7%
inhibition at 5 µM (SARS-CoV-2 3CLpro [1]; read-out: inhibition ratio (%)): 87.5%
inhibition at 6.25 µM (SARS-CoV-2 3CLpro [1]; read-out: inhibition ratio (%)): 95%
inhibition at 10 µM (SARS-CoV-2 3CLpro [1]; read-out: inhibition ratio (%)): 97.8%
inhibition at 20 µM (SARS-CoV-2 3CLpro [1]; read-out: inhibition ratio (%)): 99.5%
inhibition at 40 µM (SARS-CoV-2 3CLpro [1]; read-out: inhibition ratio (%)): 98.8%
inhibition at […] (SARS-CoV-2 3CLpro [1]; read-out: inhibition ratio (%)): 45.2% and 85% and 98.5%

O=c1c(O)c(-c2cc(O)c(O)c(O)c2)oc2cc(O)cc(O)c12 [myricetin, 3,5,7,3′,4′,5′-hexahydroxyflavone]
Inhibition (%) @10 μM (SARS-CoV-2 3CLpro [1]; 10 µM): > 90%
inhibition at 10 µM (SARS-CoV-2 3CLpro [1]; [5]): 97.6%
inhibition at 0.3125 µM (SARS-CoV-2 3CLpro [1]; read-out: inhibition ratio (%)): 27.5%
inhibition at 0.625 µM (SARS-CoV-2 3CLpro [1]; read-out: inhibition ratio (%)): 44.1%
inhibition at 5 µM (SARS-CoV-2 3CLpro [1]; read-out: inhibition ratio (%)): 96.1%
inhibition at 10 µM (SARS-CoV-2 3CLpro [1]; read-out: inhibition ratio (%)): 98.2%
inhibition at 20 µM (SARS-CoV-2 3CLpro [1]; read-out: inhibition ratio (%)): 97.9%
inhibition at 40 µM (SARS-CoV-2 3CLpro [1]; read-out: inhibition ratio (%)): 98.8%
inhibition at […] (SARS-CoV-2 3CLpro [1]; read-out: inhibition ratio (%)): 65.6% and 85.5%
KI (inactivation) (SARS-CoV-2 3CLpro [2]): 16900 nM and 15200 nM and 15000 nM
increase in molecular weight of the protease (covalent labeling) (SARS-CoV-2 3CLpro [3]): 316 Da
fluorescent labeling in mixture of HEK293T lysate and recombinant 3CLpro [4]: only significantly reduced the fluorescent labeling of the protease
fluorescent labeling of recombinant SARS-CoV-2 3CLpro by maleimide probe [4]: completely block

(+)-Catechin
Inhibition (%) @10 μM (SARS-CoV-2 3CLpro [1]): 14.0%

Biochanin A
Inhibition (%) @10 μM (SARS-CoV-2 3CLpro [1]): 5.0%
